# Several values for one entry are separate records, joined by “and”; a condition that tells them apart may be missing. Equal values may be shown once. Read-outs that look alike come from different tables or passages of the source.
# Legend:
# [1] = tested on: M. abscessus clinical isolate n. 6; assay: REMA MIC90, broad spectrum of microorganisms; type: cell-based; conditions: Mycobacteroides abscessus, M. abscessus clinical isolate n. 6, resistant to clarithromycin, moxifloxacin, doxycycline, linezolid, read-out: MIC to Compound 2
# Description: (§1) To determine the in vitro activity of compounds (MIC90) against Mycobacterium abscessus ATCC 19977, the resazurin reduction microplate assays (REMA) is performed. Briefly, serial 2-fold dilutions of drug are prepared in 96-well microtiter plates (Fluoronunc, Thermo Fisher, Waltham, MA, USA) in 100 μL of Middlebrook 7H9 medium (Difco), supplemented with 10% OADC without addition of Tween 80. Then, M. abscessus log-phase cultures were diluted (OD600=0.02) and added in the 96-well microtiter plate. Growth controls containing no compound and sterile controls without inoculum are also included. Also, a compound known to be active against M. abscessus growth is included as positive control. After 1 day of incubation at 37° C., 10 μL of resazurin (0.025% w/v) is added to each well, and bacterial viability is assessed after a further 24 h of incubation using a Fluoroskan™ Microplate Fluorometer (Thermo Fisher Scientific, Waltham, MA, USA; excitation=544 nm, emission=590 nm). Bacterial viability was calculated as a percentage of resazurin turnover in the absence of compound (MIC90). is used as positive control. Results are expressed as the average of at least three independent replicates and presented on the following Table 1.
# (§2) By using the same procedure, the compound according to Example B (compound 2) was tested on broad spectrum of microorganisms and the corresponding results are presented in the below Table 2.
# [2] = tested on: M. abscessus clinical isolate n. 7; assay: REMA MIC90, broad spectrum of microorganisms; type: cell-based; conditions: Mycobacteroides abscessus, M. abscessus clinical isolate n. 7, resistant to clarithromycin, amikacin, moxifloxacin, doxycycline, read-out: MIC to Compound 2
# Description: as §1, §2
# [3] = tested on: M. avium clinical isolate n. 1; assay: REMA MIC90, broad spectrum of microorganisms; type: cell-based; conditions: Mycobacterium avium, M. avium clinical isolate n. 1, resistant to linezolid, read-out: MIC to Compound 2
# Description: as §1, §2
# [4] = tested on: M. avium clinical isolate n. 4; assay: REMA MIC90, broad spectrum of microorganisms; type: cell-based; conditions: Mycobacterium avium, M. avium clinical isolate n. 4, resistant to linezolid and Moxifloxacin, read-out: MIC to Compound 2
# Description: as §1, §2
# [5] = type: physicochemical; conditions: at a temperature of 20±3° C., from accelerated aging at 55±2° C.
# Description: The aim of the study is to investigate the physical and chemical properties of a substances at elevated temperature and to establish an experimental expiration date for the substances (saline form vs base form).
# • 5-(ethoxycarbonyl)pyridine-2-thiolate 1-oxide (base form) • sodium 5-(ethoxycarbonyl)pyridine-2-thiolate 1-oxide (compound 2—salt form)
# • Storage temperature: (55±2° C.)
# Double layer polyethylene bag. The package is placed in a bag made of laminated aluminum foil. Each package is wrapped in wrapping paper. […]
# [6] = tested on: Staphylococcus aureus ATCC 25923; assay: REMA MIC90, broad spectrum of microorganisms; type: cell-based; conditions: ATCC25923, read-out: MIC to Compound 2
# [7] = Subacute toxicity, 14 days per oral administration in mice; type: in vivo
# Description: Acute and subacute toxicity of compound 2 was experimentally studied for intragastric administration in white mice. […] The compound was solubilized in saline to be administrated to animals.
# Evaluation of subacute toxicity of compound 2 observation time after 14 days per oral administration.
# Experimental animals: 14 C57BL/6 male white mice, 7 weeks old, weight 20-22 g.
# The following experimental procedure was used: • administration route of the compound: per os; • dosage 50 mg/kg once a day for 14 days; • volume introduced into 0.3 ml/20 g (15 ml/kg); • data recorded: behavior, weight changes, rectal temperature, mortality.
# [8] = tested on: M. bovis BCG Pasteur; assay: microbe, parasite or virus in culture; type: cell-based; conditions: Mycobacterium tuberculosis variant bovis BCG, read-out: MIC to Compound 2
# [9] = tested on: M. bolletii 1999-0888; assay: REMA MIC90, broad spectrum of microorganisms; type: cell-based; conditions: Mycobacteroides abscessus, 19990888, M. bolletii 1999-0888, Wild-type, read-out: MIC to Compound 2
# [10] = tested on: Mycobacterium abscessus ATCC 19977; assay: REMA MIC90 against M. abscessus ATCC 19977; type: cell-based; conditions: Mycobacteroides abscessus, ATCC19977
# Description: as §1, with “Briefly,” for “To determine the in vitro activity of compounds (MIC90) against Mycobacterium abscessus ATCC 19977, the resazurin reduction microplate assays (REMA) is performed. Briefly,”, “Also, a compound known to be active against M. abscessus growth is included as positive control.” left out, “Bacterial viability was calculated as a percentage of resazurin turnover in the absence of compound (MIC90). is used as positive control.” left out
# [11] = tested on: Candida albicans H8; assay: Antifungal agar well diffusion assay; conditions: 20 μL water solution in 4 mm well
# Description: (§3) The well diffusion test was performed using Casitone agar. The inoculum used was prepared using the Candida or Aspergillus strains from a 24-hour culture on Sabouraud dextrose agar, a suspension was made in a sterile saline solution (0.85%). The turbidity of the suspension was adjusted with a spectrophotometer at 530 nm to obtain a final concentration to match that of a 0.5 McFarland standard (0.5-2.5×10^3). 20 mL of Bacto-casitone were melted, cooled to 55° C. and then inoculated with 1 mL of the organism suspension. The inoculated agar was poured into the assay plate (9 cm in diameter) and allowed to cool down on a leveled surface.
# [12] = tested on: M. massiliense 2005-0524; assay: REMA MIC90, broad spectrum of microorganisms; type: cell-based; conditions: Mycobacteroides abscessus, 20050524, M. massiliense 2005-0524, Wild-type, read-out: MIC to Compound 2
# [13] = tested on: M. avium subsp. avium Chester ATCC15769; assay: REMA MIC90, broad spectrum of microorganisms; type: cell-based; conditions: Mycobacterium avium, M. avium subsp. avium Chester ATCC15769, Wild-type, read-out: MIC to Compound 2
# [14] = tested on: Pseudomonas aeruginosa PAO1; assay: REMA MIC90, broad spectrum of microorganisms; type: cell-based; conditions: Pseudomonas aeruginosa PAO1, in presence of efflux inhibitor, read-out: MIC to Compound 2
# [15] = tested on: Sporobolomyces salmonicolor; assay: Antifungal agar well diffusion assay; conditions: 20 μL water solution in 4 mm well
# Description: as §3
# [16] = tested on: M. smegmatis mc2155; assay: REMA MIC90, broad spectrum of microorganisms; type: cell-based; conditions: Mycolicibacterium smegmatis, M. smegmatis mc2155, Wild-type, read-out: MIC to Compound 2
# [17] = mice, per os, 50 mg/kg once a day for 14 days
smiles,measurement,setting,value
"CCOC(=O)c1ccc([S-])[n+]([O-])c1.[Na+] [Compound 2, Sodium 5-(ethoxycarbonyl)pyridine-2-thiolate 1-oxide]",MIC,[1],500 µg/mL
same,MIC,[2],500 µg/mL
same,MIC,[3],500 µg/mL
same,MIC,[4],500 µg/mL
same,Experimental shelf life,[5],about 2 years
same,MIC,[6],8000 µg/mL
same,"Weight of mice, Experimental group, 28 Jan. 2021, M ± m","[7]; group mean, after 14 days of 50 mg/kg per os daily",21.13 ± 0.308 gramm
same,"Weight of mice, Experimental group, 13 Jan. 2021, M ± m","[7]; group mean, start of 50 mg/kg per os daily treatment",20.71 ± 0.4 gramm
same,"Weight of individual mice, Experimental group, 28 Jan. 2021","[7]; individual mice, after 14 days of 50 mg/kg per os daily, 50 mg/kg",21.1 gramm and 19.5 gramm and 20.9 gramm and 21.7 gramm and 21.5 gramm (2×) and 22.4 gramm and 20.5 gramm
same,"Weight of individual mice, Experimental group, 13 Jan. 2021","[7]; individual mice, start of 50 mg/kg per os daily treatment, 50 mg/kg",20.1 gramm and 22.1 gramm and 19.2 gramm and 19.7 gramm and 20.9 gramm and 20.5 gramm and 22.8 gramm and 20.4 gramm
same,Subacute toxicity: general state and behavior,[7]; [17],did not cause changes in the general state and behavior of the mice
same,"Subacute toxicity: mass of mice, experimental vs control group",[7]; [17],No significant differences
same,Subacute toxicity: animal death,"[7]; mouse, in vivo, 50 mg/kg",there were no cases of animal death
same,MIC,[8],62.5 µg/mL
same,MIC,[9],500 µg/mL
same,MIC,"[10]; MIC90, REMA, Table 1, read-out: MIC in M. abscessus ATCC 19977",125 µg/mL
same,MIC,"[10]; MIC90, M. abscessus ATCC 19977, Wild-type, Table 2, read-out: MIC to Compound 2",250 µg/mL
same,Inhibition Zone of Test Microorganism,[11],53 mm
same,MIC,[12],500 µg/mL
same,MIC,[13],500 µg/mL
same,MIC,[14],1000 µg/mL
same,Inhibition Zone of Test Microorganism,[15],46 mm
same,MIC,[16],1000 µg/mL

# Source: patent publication US20260191845A1, “PYRIDINE-2-THIOL 1-OXIDE DERIVATIVES AND THEIR USE FOR TREATMENT OF MAMMALIAN INFECTIONS CAUSED BY MYCOBACTERIUM OR FUNGI” (priority 2022, published 2026)
